From patent publication US10548894B2, “Combination therapy” (Array BioPharma Inc., priority 2013, dated 2020)

How the values were obtained:
[1] = tested on: MAPK and PIK3C signaling in COLO 741 cells; assay: Western analysis of phosphorylated MEK1/2, ERK1/2 and AKT; assay type: cell-based; settings: for Phosphorylated levels of AKT: 100 nM
Experimental: (§1) FIG. 4—The effect on signaling of combining the Compound of Formula (I) with the FGFR inhibitor Compound H and the FGFR ligand FGF2 in two BRAFV600E mutant melanoma-derived cell lines in vitro. Shown is western analysis of both phosphorylated and total AKT, ERK1/2, and MEK1/2 proteins isolated from (A) […] and (B) SK-MEL-5 cells following treatment with the Compound of Formula (I) (100 nM), FGF2 (100 ng/ml), and Compound H (1 uM). Cells were treated for 2 and 24 hours with agents singly and in combination as discussed in Example 5.
(§2) For Western analysis, cells were plated in 6-well (Costar, catalog number 3506) plates at a density of 5×10^5 cells per well in 2.0 ml of complete culture medium. Twelve to 24 hrs after plating, cells were treated with the various compounds, and in all experiments the Compound of Formula (I), Compound H, and FGF2 were used at final concentrations of 100 nM, 1.0 uM, and 100 ng/ml, respectively. Cells were harvested 2, and 24 hrs following the addition of compound in freshly prepared cell lysis buffer (Cell Signaling Technology Catalog number 9803); supplemented with both phosphatase (PhosStop, Roche Catalog number 04906845001) and protease inhibitors (Roche, catalog number 11697498001). Proteins from cell lysates were separated by electrophoresis though a NuPAGE 4-12% Bis-Tis midi gel (Novex, catalog number WG1402BX10), transferred to nitrocellulose membranes, which were subsequently incubated with antibodies from Cell Signaling Technology (Danvers, Mass., USA) recognizing p-AKT (S473, Catalog number 4058), total AKT (Catalog number 2920), p-ERK1/2 (T202/Y204, catalog number 9101), total ERK1/2 (catalog number 9107), p-MEK1/2 (S217/221, catalog number 9121) and β-actin (Ambion, catalog number AM4302). Western blots were visualized following incubation with IRDye 680RD Goat anti-Rabbit IgG (Li-Cor, Catalog number 926-68071) and IRDye 800 CW Goat anti-Mouse IgG (Li-Cor, Catalog number 926-32210) and scanning with an Odyssey Infrared Imager System (Li-Cor, Lincoln, Nebr., USA).
(§3) To investigate whether either restored MAPK or activated PIK3C signaling might underlie FGF2-mediated rescue the effects of FGF2 on MAPK and PIK3C signaling were examined via western-blot analysis of phosphorylated MEK1/2 (MAP2K1/2), ERK1/2 (MAPK1/2) and AKT1/2/3.

[2] = tested on: MAPK and PIK3C signaling in SK-MEL-5 cells; assay: as above; assay type: cell-based
Experimental: as §1, §2, §3

[3] = Clinical dose finding and tolerability (RP2D/MTD) in patients; assay type: in vivo
Text: The selection of the starting dose follows the ICH S9 guidelines for choosing a starting a dose for a first-in-human trial conducted in patients with cancer, and is shown in Table 6-2.
Table 3 describes the starting doses and the provisional dose levels of study treatments for the combinations that may be evaluated during this trial. Additional dose levels not currently specified may be enrolled and additional patients may be enrolled at a dose level already tested if such changes are deemed necessary to provide optimal safety and tolerability, pharmacokinetic, and pharmacodynamic data.

[4] = tested on: WM-266-4 cells expressing truncated p61-BRAFV600E; assay: ATP-based CTG (Cell Titer Glo) cell viability assay, 72 h; settings: Homo sapiens, WM-266-4 p61 BRafV600E, single agent
Experimental: (§4) Compound stocks are prepared in DMSO at a final concentration of 10 mM.
(§5) A-375 and WM-266-4 cells were purchased from American Type Culture Collection (ATCC). The A-375 cells were cultured in DMEM medium (ATCC) and the WM-266-4 cells were cultured in EMEM medium (ATCC) both supplemented with 10% fetal bovine serum (Gibco) and incubated at 37° C./5% CO2. The cell lines engineered to express commonly occurring alleles indicative of resistance were acquired from Novartis-Emeryville. These resistant models include, A-375 cells expressing mutant MEK1P124L, truncated p61-BRAFV600E, or mutant NRASQ61K, and WM-266-4 cells expressing mutant MEK1C121S, truncated p61-BRAFV600E, or mutant NRASQ61K. These cells were cultured in the appropriate parental medium with selection marker G418 and in the presence of 5 uM LFE158 (MEK mutants) or LIH720 (truncated p61-BRAFV600E).
(§6) For screening, cells were seeded in 80 ul of medium in 384-well plates (Thermo Scientific, cat#4332) at 500 (A-375) or 750 (WM-266-4) cell densities per well using a MultiDrop Combi (Thermo-Fisher) with an 8-channel standard cassette. To promote an even distribution of cells across the entire well, cells were briefly centrifuged at 1000 RPM and incubated at room temperature 30 minutes. All plates were incubated at 37° C., 5% CO2 for 24 h prior to compound addition. Compound stock was freshly prepared in the appropriate culture medium, and added using a PAA robot equipped with a 200n1 pin tool. In a minimum of three replicate wells, single agent and combination effects after 72 hours, were assessed by both quantification of cellular ATP levels via Cell Titer Glo (Promega) according to the manufacturer's protocol and by microscopy imaging. For imaging, cells were fixed to the plates and permeabilized with a solution of 10% PFA, 0.3% TX-100 in PBS via a WellMate dispenser with controlled dispensing speeds. Cell nuclei were stained with Hoechst 33342 (H3570, Invitrogen), and all necessary washing steps were performed by a BioTek washer. […]

[5] = tested on: WM-266-4 cells expressing mutant NRASQ61K; assay: as above; settings: Homo sapiens, WM-266-4 NRASQ61K, single agent
Experimental: as §4, §5, §6

[6] = tested on: A-375 cells expressing truncated p61-BRAFV600E; assay: as above; settings: Homo sapiens, A-375 p61 BRafV600E, single agent
Experimental: as §4, §5, §6

COC(=O)N[C@@H](C)CNc1nccc(-c2cn(C(C)C)nc2-c2cc(Cl)cc(NS(C)(=O)=O)c2F)n1 [Compound of Formula (I)]
MAPK signaling (phosphorylated MEK and ERK levels) ([1]; COLO 741, 2 and 24 hours, no FGF2, Formula (I) 100 nM, Compound H 1.0 uM): marked suppression of MAPK signaling | Phosphorylated levels of AKT ([1]; COLO 741, 2 hours): unaffected | Phosphorylated levels of AKT ([1]; COLO 741, 24 hrs): modest decreases | levels of phosphorylated MEK and ERK ([1]; COLO 741, with FGF2 100 ng/ml, 24 hrs): largely, although not completely, restored | changes in signaling relative to Compound of Formula (I) alone ([1]; COLO 741, with FGF2 100 ng/ml, two hours): minimal changes | MAPK signaling (phosphorylated MEK and ERK levels) ([2]; SK-MEL-5, 2 and 24 hours, no FGF2, Formula (I) 100 nM, Compound H 1.0 uM): marked suppression of MAPK signaling | Phosphorylated levels of AKT ([2]; SK-MEL-5, 2 hours, 100 nM): unaffected | levels of phosphorylated MEK and ERK ([2]; SK-MEL-5, with FGF2 100 ng/ml, 24 hrs): largely, although not completely, restored | changes in signaling relative to Compound of Formula (I) alone ([2]; SK-MEL-5, with FGF2 100 ng/ml, two hours): minimal changes | observed adverse events ([3]; in clinic, tested at up to 700 mg QD): reversible and manageable | RP2D (recommended phase II dose) ([3]; single agent, patients): 450 mg QD | IC50 [4]: 906 nM | IC50 [5]: 1120 nM | IC50 [6]: 576 nM
